Experimental data reported in patent US12539292B2, “BRM targeting compounds and associated methods of use” (Arvinas Operations, Inc., priority 2018, dated 2026).
Where two headings read alike, the source gives them in different places.

Biological target: T1, BRM (Homo sapiens, UniProt P51531)
T1 construct: In-Cell Western Screen of BRM Degradation in SW1573 Cells; endogenous in cells; host or cells: SW1573
Experiment: In-cell Western screen of BRM degradation in SW1573 cells (Dmax and DC50)
Assay type: cell-based
In short: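 Adherent SW1573 cultures exposed to test compounds for 18-20 h were processed for in-cell Western after PFA fixation and detergent permeabilization. BRM degradation was reported as Dmax and DC50.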

[1] = BRM degradation, SW1573 cells, read-out: DC50
[2] = BRM degradation, SW1573 cells, tested at the top concentration of between 0.3 and 10 μM, read-out: Dmax (%) (% degraded)
[3] = SW1573, % degraded, when tested at the top concentration of between 0.3 and 10 μM, read-out: BRM Dmax (%)
[4] = degradation of BRM, read-out: BRM DC50
[5] = BRM degradation, SW1573 cells, Table 2D, read-out: *DC50
[6] = BRM degradation, SW1573 cells, Table 2D, read-out: **Dmax (%) (% degraded)

T1 sequence (P51531 whole entry): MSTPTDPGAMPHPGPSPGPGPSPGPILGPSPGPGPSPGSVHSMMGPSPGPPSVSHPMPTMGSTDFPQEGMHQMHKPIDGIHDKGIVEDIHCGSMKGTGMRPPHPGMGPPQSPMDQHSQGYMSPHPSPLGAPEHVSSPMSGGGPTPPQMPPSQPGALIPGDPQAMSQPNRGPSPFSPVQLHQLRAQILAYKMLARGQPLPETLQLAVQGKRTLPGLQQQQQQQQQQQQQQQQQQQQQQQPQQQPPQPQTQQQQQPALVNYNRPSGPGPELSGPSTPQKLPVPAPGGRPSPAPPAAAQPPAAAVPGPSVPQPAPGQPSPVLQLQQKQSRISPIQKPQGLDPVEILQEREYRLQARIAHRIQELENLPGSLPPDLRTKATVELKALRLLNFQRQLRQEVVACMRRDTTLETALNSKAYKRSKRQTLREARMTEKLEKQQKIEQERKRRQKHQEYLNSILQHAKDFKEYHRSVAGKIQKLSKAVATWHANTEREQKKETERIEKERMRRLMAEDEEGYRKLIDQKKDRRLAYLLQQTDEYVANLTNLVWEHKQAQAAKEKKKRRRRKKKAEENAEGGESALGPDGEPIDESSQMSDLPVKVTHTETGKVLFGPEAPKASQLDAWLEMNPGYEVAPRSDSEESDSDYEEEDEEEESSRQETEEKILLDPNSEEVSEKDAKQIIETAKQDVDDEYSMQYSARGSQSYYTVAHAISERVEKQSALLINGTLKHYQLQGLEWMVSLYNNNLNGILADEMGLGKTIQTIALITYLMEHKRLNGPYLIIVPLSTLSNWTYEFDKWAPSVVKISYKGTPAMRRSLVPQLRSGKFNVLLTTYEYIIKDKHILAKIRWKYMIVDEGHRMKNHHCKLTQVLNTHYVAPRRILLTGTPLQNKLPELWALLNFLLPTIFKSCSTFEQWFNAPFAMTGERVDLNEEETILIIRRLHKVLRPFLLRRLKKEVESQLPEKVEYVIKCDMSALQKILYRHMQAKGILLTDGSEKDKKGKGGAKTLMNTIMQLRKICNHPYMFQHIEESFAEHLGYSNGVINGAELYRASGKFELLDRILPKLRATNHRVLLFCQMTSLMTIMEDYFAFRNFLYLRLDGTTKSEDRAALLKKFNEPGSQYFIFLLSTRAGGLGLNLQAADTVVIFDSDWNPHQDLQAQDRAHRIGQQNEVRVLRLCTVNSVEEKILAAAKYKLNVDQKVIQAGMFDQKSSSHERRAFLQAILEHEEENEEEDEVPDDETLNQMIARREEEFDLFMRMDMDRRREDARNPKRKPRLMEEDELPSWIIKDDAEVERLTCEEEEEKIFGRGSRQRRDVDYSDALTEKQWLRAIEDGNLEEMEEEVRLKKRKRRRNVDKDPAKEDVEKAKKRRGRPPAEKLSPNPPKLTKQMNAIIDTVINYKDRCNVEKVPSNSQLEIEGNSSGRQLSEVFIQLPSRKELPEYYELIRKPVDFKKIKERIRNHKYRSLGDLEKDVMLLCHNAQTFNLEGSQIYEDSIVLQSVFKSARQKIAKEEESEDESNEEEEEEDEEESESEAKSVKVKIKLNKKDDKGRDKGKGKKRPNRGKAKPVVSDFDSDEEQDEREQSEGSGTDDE

| SMILES | DC50 [1] [nM] | Dmax [2] [%] | other results |
| --- | --- | --- | --- |
| CC(C)C(C(=O)N1C[C@H](O)C[C@H]1C(=O)N[C@@H](C)c1ccc(-c2scnc2C#CCN(C)C)cc1)c1cc(OCCN2CCN(CCOc3cc(N4C5CCC4CN(c4cc(-c6ccccc6O)nnc4N)C5)ccn3)CC2)no1 (stereo partly drawn) [compound 172, (2S,4R)-1-(2-(3-(2-(4-(2-((4-(3-(3-amino-6-(2-hydroxyphenyl)pyridazin-4-yl)-3,8-diazabicyclo[3.2.1]octan-8-yl)pyridin-2-yl)oxy)ethyl)piperazin-1-yl)ethoxy)isoxazol-5-yl)-3-methylbutanoyl)-N-((S)-1-(4-(4-(3-(dimethylamino)prop-1-yn-1-yl)thiazol-5-yl)phenyl)ethyl)-4-hydroxypyrrolidine-2-carboxamide] | < 2.5 | > 75 | – |
| Cc1ncsc1-c1ccc([C@H](CO)NC(=O)[C@@H]2C[C@@H](O)CN2C(=O)[C@@H](c2cc(OCCN3CCN(CCOc4cc(N5C6CCC5CN(c5cc(-c7ccccc7O)nnc5N)C6)ccn4)CC3)no2)C(C)C)cc1 [compound 100, (2S,4R)-1-((2R)-2-(3-(2-(4-(2-((4-(3-(3-amino-6-(2-hydroxyphenyl)pyridazin-4-yl)-3,8-diazabicyclo[3.2.1]octan-8-yl)pyridin-2-yl)oxy)ethyl)piperazin-1-yl)ethoxy)isoxazol-5-yl)-3-methylbutanoyl)-4-hydroxy-N-((R)-2-hydroxy-1-(4-(4-methylthiazol-5-yl)phenyl)ethyl)pyrrolidine-2-carboxamide] | < 2.5 | – | Dmax (BRM degradation, SW1573 cells, when tested at the top concentration of between 0.3 and 10 μM, read-out: Dmax (%) (% degraded)): > 75% |
| Cc1ncsc1-c1ccc([C@H](C)NC(=O)[C@@H]2C[C@@H](O)CN2C(=O)[C@H](c2cc(OCCN3CCN(CCOc4cc(N5C6CCC5CN(c5cc(-c7ccccc7O)nnc5N)C6)ccn4)CC3)no2)C(C)C)cn1 [compound 160, (2S,4R)-1-((2S)-2-(3-(2-(4-(2-((4-(3-(3-amino-6-(2-hydroxyphenyl)pyridazin-4-yl)-3,8-diazabicyclo[3.2.1]octan-8-yl)pyridin-2-yl)oxy)ethyl)piperazin-1-yl)ethoxy)isoxazol-5-yl)-3-methylbutanoyl)-4-hydroxy-N-((S)-1-(6-(4-methylthiazol-5-yl)pyridin-3-yl)ethyl)pyrrolidine-2-carboxamide] | > 30 | > 75 | – |
| Cc1ncsc1-c1ccc([C@H](C)NC(=O)[C@@H]2C[C@@H](O)CN2C(=O)[C@@H](c2cc(N3CCC(CO[C@H]4C[C@H](Oc5cc(N6C7CCC6CN(c6cc(-c8ccccc8O)nnc6N)C7)ccn5)C4)CC3)no2)C(C)C)cc1 [compound 434, (2S,4R)-1-((2R)-2-(3-(4-(((1r,3R)-3-((4-(3-(3-amino-6-(2-hydroxyphenyl)pyridazin-4-yl)-3,8-diazabicyclo[3.2.1]octan-8-yl)pyridin-2-yl)oxy)cyclobutoxy)methyl)piperidin-1-yl)isoxazol-5-yl)-3-methylbutanoyl)-4-hydroxy-N-((S)-1-(4-(4-methylthiazol-5-yl)phenyl)ethyl)pyrrolidine-2-carboxamide] | – | – | Dmax [3]: > 75%; DC50 [4]: < 2.5 nM |
| Cc1nccn1-c1ccc([C@H](C)NC(=O)[C@@H]2C[C@@H](O)CN2C(=O)[C@H](c2cc(N3CCC(CN4CCC(O[C@H]5C[C@H](C#C[C@@H](C)n6cc(-c7cc(-c8ccccc8O)nnc7N)cn6)C5)CC4)CC3)no2)C(C)C)cc1 (single isomer, unassigned) [compound 637] | 2.5 to 10 | – | Dmax (BRM degradation, SW1573 cells, read-out: Dmax (% degraded)): > 75% |
| CC(C)[C@@H](C(=O)N1C[C@H](O)C[C@H]1C(=O)N[C@@H](C)c1ccc(-c2c(F)cnn2C)cc1)c1cc(OCCN2CCN(CCOc3cc(N4C5CCC4CN(c4cc(-c6ccccc6O)nnc4N)C5)ccn3)CC2)no1 [compound 410, (2S,4R)-1-((2R)-2-(3-(2-(4-(2-((4-(3-(3-amino-6-(2-hydroxyphenyl)pyridazin-4-yl)-3,8-diazabicyclo[3.2.1]octan-8-yl)pyridin-2-yl)oxy)ethyl)piperazin-1-yl)ethoxy)isoxazol-5-yl)-3-methylbutanoyl)-N-((S)-1-(4-(4-fluoro-1-methyl-1H-pyrazol-5-yl)phenyl)ethyl)-4-hydroxypyrrolidine-2-carboxamide] | – | – | Dmax [3]: > 75%; DC50 [4]: < 2.5 nM |
| Cc1ncsc1-c1ccc(CNC(=O)[C@@H]2C[C@@H](O)CN2C(=O)[C@@H](c2cc(OCC#Cc3ccc(O[C@H]4C[C@H](Oc5cc(N6C7CCC6CN(c6cc(-c8ccccc8O)nnc6N)C7)ccn5)C4)cn3)no2)C(C)C)cc1 [compound 221, (2S,4R)-1-((2R)-2-(3-((3-(5-((1r,3R)-3-((4-(3-(3-amino-6-(2-hydroxyphenyl)pyridazin-4-yl)-3,8-diazabicyclo[3.2.1]octan-8-yl)pyridin-2-yl)oxy)cyclobutoxy)pyridin-2-yl)prop-2-yn-1-yl)oxy)isoxazol-5-yl)-3-methylbutanoyl)-4-hydroxy-N-(4-(4-methylthiazol-5-yl)benzyl)pyrrolidine-2-carboxamide] | < 2.5 | > 75 | – |
| Cc1ncsc1-c1ccc([C@H](C)NC(=O)[C@@H]2C[C@@H](O)CN2C(=O)[C@H](c2cc(OCCCOc3cc(N4C5CCC4CN(c4cc(-c6ccccc6O)nnc4N)C5)ccn3)no2)C(C)C)cc1 [compound 613, (2S,4R)-1-((2S)-2-(3-(3-((4-(3-(3-amino-6-(2-hydroxyphenyl)pyridazin-4-yl)-3,8-diazabicyclo[3.2.1]octan-8-yl)pyridin-2-yl)oxy)propoxy)isoxazol-5-yl)-3-methylbutanoyl)-4-hydroxy-N-((S)-1-(4-(4-methylthiazol-5-yl)phenyl)ethyl)pyrrolidine-2-carboxamide] | – | – | DC50 [5]: > 30 nM |
| Cc1ncsc1-c1ccc([C@H](C)NC(=O)[C@@H]2C[C@@H](O)CN2C(=O)[C@H](c2cc(OCCN3CCC(O[C@H]4C[C@H](Oc5cc(N6C7CCC6CN(c6cc(-c8ccccc8O)nnc6N)C7)ccn5)C4)CC3)no2)C(C)C)c(F)c1 [compound 239, (2S,4R)-1-((2S)-2-(3-(2-(4-((1r,3S)-3-((4-(3-(3-amino-6-(2-hydroxyphenyl)pyridazin-4-yl)-3,8-diazabicyclo[3.2.1]octan-8-yl)pyridin-2-yl)oxy)cyclobutoxy)piperidin-1-yl)ethoxy)isoxazol-5-yl)-3-methylbutanoyl)-N-((S)-1-(2-fluoro-4-(4-methylthiazol-5-yl)phenyl)ethyl)-4-hydroxypyrrolidine-2-carboxamide] | > 30 | > 75 | – |
| Cc1nccn1-c1ccc([C@H](C)NC(=O)[C@@H]2C[C@@H](O)CN2C(=O)[C@@H](c2cc(N3CCC(O[C@H]4C[C@H](Oc5cc(N6C7CCC6CN(c6cc(-c8ccccc8O)nnc6N)C7)ccn5)C4)CC3)no2)C(C)C)cc1 [compound 601, (2S,4R)-1-((2R)-2-(3-(4-((1r,3R)-3-((4-(3-(3-amino-6-(2-hydroxyphenyl)pyridazin-4-yl)-3,8-diazabicyclo[3.2.1]octan-8-yl)pyridin-2-yl)oxy)cyclobutoxy)piperidin-1-yl)isoxazol-5-yl)-3-methylbutanoyl)-4-hydroxy-N-((S)-1-(4-(2-methyl-1H-imidazol-1-yl)phenyl)ethyl)pyrrolidine-2-carboxamide] | – | – | Dmax [6]: > 75%; DC50 [5]: < 2.5 nM |
| COc1cc(-c2scnc2C)ccc1CNC(=O)[C@@H]1C[C@@H](O)CN1C(=O)[C@H](c1cc(OCCN2CCC(O[C@H]3C[C@H](Oc4cc(N5C6CCC5CN(c5cc(-c7ccccc7O)nnc5N)C6)ccn4)C3)CC2)no1)C(C)C [compound 214, (2S,4R)-1-((2S)-2-(3-(2-(4-((1r,3S)-3-((4-(3-(3-amino-6-(2-hydroxyphenyl)pyridazin-4-yl)-3,8-diazabicyclo[3.2.1]octan-8-yl)pyridin-2-yl)oxy)cyclobutoxy)piperidin-1-yl)ethoxy)isoxazol-5-yl)-3-methylbutanoyl)-4-hydroxy-N-(2-methoxy-4-(4-methylthiazol-5-yl)benzyl)pyrrolidine-2-carboxamide] | > 30 | – | – |
| Cc1ncsc1-c1cc(F)c([C@H](C)NC(=O)[C@@H]2C[C@@H](O)CN2C(=O)[C@@H](c2cc(OCCC3CCN(C[C@H]4C[C@H](Oc5cc(N6C7CCC6CN(c6cc(-c8ccccc8O)nnc6N)C7)ccn5)C4)CC3)no2)C(C)C)cc1F [compound 552, (2S,4R)-1-((2R)-2-(3-(2-(1-(((1r,3R)-3-((4-(3-(3-amino-6-(2-hydroxyphenyl)pyridazin-4-yl)-3,8-diazabicyclo[3.2.1]octan-8-yl)pyridin-2-yl)oxy)cyclobutyl)methyl)piperidin-4-yl)ethoxy)isoxazol-5-yl)-3-methylbutanoyl)-N-((S)-1-(2,5-difluoro-4-(4-methylthiazol-5-yl)phenyl)ethyl)-4-hydroxypyrrolidine-2-carboxamide] | – | – | Dmax [6]: > 75%; DC50 [5]: < 2.5 nM |
| Cc1ncsc1-c1ccc([C@H](C)NC(=O)[C@@H]2C[C@@H](O)CN2C(=O)[C@H](c2cc(O[C@H]3C[C@H](CN4CCC(O[C@H]5C[C@H](Oc6cc(N7C8CCC7CN(c7cc(-c9ccccc9O)nnc7N)C8)ccn6)C5)CC4)C3)no2)C(C)C)cc1 [compound 241, (2S,4R)-1-((2S)-2-(3-((1R,3S)-3-((4-((1r,3R)-3-((4-(3-(3-amino-6-(2-hydroxyphenyl)pyridazin-4-yl)-3,8-diazabicyclo[3.2.1]octan-8-yl)pyridin-2-yl)oxy)cyclobutoxy)piperidin-1-yl)methyl)cyclobutoxy)isoxazol-5-yl)-3-methylbutanoyl)-4-hydroxy-N-((S)-1-(4-(4-methylthiazol-5-yl)phenyl)ethyl)pyrrolidine-2-carboxamide] | 2.5 to 10 | > 75 | – |
| Cc1ncsc1-c1ccc([C@H](C)NC(=O)[C@@H]2C[C@@H](O)CN2C(=O)[C@@H](c2cc(N3CCC(CN4CCC([C@H](C)n5cc(-c6cc(-c7ccccc7O)nnc6N)cn5)CC4)CC3)no2)C(C)C)cc1 (single isomer, unassigned) [compound 573] | – | – | Dmax [6]: > 75%; DC50 [5]: < 2.5 nM |
